Reference: patent US9682931B2, “Aryloyl(oxy or amino)pentafluorosulfanylbenzene compound, pharmaceutically acceptable salt thereof, and prodrugs thereof” (UBE INDUSTRIES, LTD., priority 2013, dated 2017)

How the values were obtained:
[1] = test system: caspase 3/7 in A549 cells (human lung cancer, adenocarcinoma); test: Test of inducing apoptosis of A549 cells (caspase 3/7 activity); type: cell-based; settings: 5 hours
Method: (Test of Inducing Apoptosis of A549 Cells (Human Lung Cancer, Adenocarcinoma))
To evaluate apoptosis induction of a sample (Compound 3), the activity of caspase 3/7 was measured.
1. Measurement Reagents, Equipment and Instruments
APO-ONE Homogeneous Caspase-3/7 Assay (G7790, Lot No. 314408; Promega)
Fluorescence plate reader (SpectraMax GEMINI EM; Molecular Devices)
Cells: A549 cells (obtained from the Research Resource Bank of the Human Sciences Foundation)
Medium: 10% FBS and 0.1 mmol/L Non-Essential Amino Acids Solution-containing MEM medium
A 1 mmol/L solution prepared with DMSO was prepared with a medium so as to have a final concentration (the final concentration of DMSO was set to be 0.1%).
A sample was weighed and a medium was added so as to obtain 500 μg/mL. While warming at 37° C., sonication was performed for 60 minutes to make dissolution. Filtration was performed by a 0.22 μm-filter. The 500 μg/mL solution was subjected to serial dilution in a common ratio of 10 with the medium to prepare 50, 5, 0.5, 0.05 and 0.005 μg/mL.
(1) (The day before test)
On a 96-well plate, A549 cells were seeded in a ratio of 10000 cells/100 μL/well. […]
(4) Reaction was performed at room temperature while blocking light. Two hours later, fluorescence was measured (excitation wavelength: 499 nm, fluorescence wavelength: 521 nm)

[2] = test system: TNF-α mRNA expression in RBL-2H3 cells; test: Validation test in RBL-2H3 cell: TNF-α mRNA expression by antigen stimulation (Real-time PCR); type: cell-based, Rat; settings: for TNF-α mRNA expression level: untreated control as 100
Method: 2. Validation Test in RBL-2H3 Cell
(Effect on Inflammation Mediator mRNA Expression by Antigen Stimulation)
After a cell model for an allergic reaction, RBL-2H3 cells, were stimulated by an antigen, mRNA expression level of a typical inflammation mediator, TNF-α, in the cell was measured by a Real-time PCR method. In this manner, a confirmation test for anti-inflammatory effect of Compound 3 was performed.
A test substance (Compound 3) (50 mg) was dissolved by adding 50 vol % ethanol (1 mL) to this to obtain an ethanol solution having a concentration of 50 mg/mL. The resultant solution was diluted with a medium. […] As a control (for comparison), Wortmannin (10 μM) was used. Herein, the concentrations were all indicated as the concentrations in cell supernatants.
RBL-2H3 cells were sensitized with anti-DNP-IgE antibody for 2 hours. A medium or a test solution was added and heat was applied at 37° C. for 10 minutes and then, a DNP-HSA solution was added. A reaction was carried out at 37° C. for 30 minutes. After completion of the reaction, total RNA was extracted from a cell fraction and cDNA was synthesized by use of Random Primer and Reverse Transcriptase. After a specific primer for a desired gene (ITNF-α,β-actin) was added, a Real-time PCR method was carried out in accordance with SYBR Green method using the resultant cDNA as a template to determine the expression level of mRNA. The expression ratio of the desired gene relative to a housekeeping gene, β-actin, was calculated. In this manner, a change in expression level relative to an untreated control was calculated.
Main test conditions and outline of the operation will be described below.
Cell: Rat basophil leukemic cell, RBL-2H3 [Human Sciences Foundation]
Antigen stimulation: Anti-DNP-IgE antibody, DNP labeled albumin
[Sigma-Aldrich Corporation]
Desired genes: IL-4, MCP-1, TNF-α, β-actin (housekeeping gene)
Measurement apparatus: StepOnePlus Real-Time PCR System [Life
Technologies Corporation] Measurement conditions: 95° C. (20 sec)→{95° C. (3 sec)→60° C. (30 sec)}×40 cycles
mRNA expression level (%) was obtained based on the expression level of the untreated control as 100.

Topoisomerase I = target: T1, Topoisomerase I (Homo sapiens, UniProt P11387); test: Topoisomerase I assay; type: biochemical; parameters: key to Inhibitory activity Topoisomerase I: ∘: Inhibitory activity is present; Δ: Weak inhibitory activity is present; x: No inhibitory activity is present
T1 sequence (P11387 1-765): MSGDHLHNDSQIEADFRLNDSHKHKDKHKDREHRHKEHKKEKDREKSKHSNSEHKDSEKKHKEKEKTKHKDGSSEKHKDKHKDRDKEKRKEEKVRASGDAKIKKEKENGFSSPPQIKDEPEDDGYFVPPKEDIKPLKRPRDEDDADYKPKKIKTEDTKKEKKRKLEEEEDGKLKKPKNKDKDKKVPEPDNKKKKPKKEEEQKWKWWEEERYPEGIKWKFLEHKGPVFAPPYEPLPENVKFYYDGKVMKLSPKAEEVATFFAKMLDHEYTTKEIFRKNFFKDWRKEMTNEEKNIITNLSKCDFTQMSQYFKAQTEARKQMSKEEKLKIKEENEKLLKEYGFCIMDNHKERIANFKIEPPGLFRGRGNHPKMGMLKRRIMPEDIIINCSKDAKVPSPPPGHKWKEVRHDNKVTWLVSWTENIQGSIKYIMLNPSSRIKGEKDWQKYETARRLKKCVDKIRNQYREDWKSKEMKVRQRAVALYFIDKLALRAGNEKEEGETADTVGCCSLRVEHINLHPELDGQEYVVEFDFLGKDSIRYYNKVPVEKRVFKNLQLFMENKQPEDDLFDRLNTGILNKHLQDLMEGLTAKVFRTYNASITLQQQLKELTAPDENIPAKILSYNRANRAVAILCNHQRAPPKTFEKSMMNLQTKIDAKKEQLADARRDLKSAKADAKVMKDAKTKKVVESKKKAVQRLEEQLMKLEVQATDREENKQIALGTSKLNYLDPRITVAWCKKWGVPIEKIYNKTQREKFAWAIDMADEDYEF
Method: The inhibitory action of a test substance (Compound 3) on Topoisomerase I and Topoisomerase II was examined.
Topoisomerase I (4 units) was subjected to the following assay performed in the assay conditions, which were determined by a preliminary examination, for a reaction time of 2 hours.
(1) An assay solution was prepared in accordance with the following table.

## O=C(Nc1ccc(S(F)(F)(F)(F)F)cc1)c1cc(O)c(O)c(O)c1 [Compound 3, 4-(3,4,5-trihydroxybenzoylamino)pentafluorosulfanylbenzene]
[1]; 0.005 μg/mL to 5 μg/mL
  caspase 3/7 activity: high activity was observed
[1]; all concentrations 0.005 μg/mL to 500 μg/mL
  caspase 3/7 activity: tends to enhance caspase 3/7 activity
[2]; RBL-2H3 cells, antigen stimulation
  suppression of TNF-α mRNA expression: Suppression of the mRNA expression TNF-α, one of inflammatory mediators, was confirmed
[2]; sample 1 μg/mL
  TNF-α mRNA expression level: 87%
[2]; sample 10 μg/mL
  TNF-α mRNA expression level: 69%
Topoisomerase I; 500 μg/mL
  Topoisomerase I inhibitory activity: inhibitory activity was confirmed
Topoisomerase I; final concentration 0.5 μg/mL
  Inhibitory activity Topoisomerase I: x
Topoisomerase I; final concentration 5 μg/mL
  Inhibitory activity Topoisomerase I: x
Topoisomerase I; final concentration 50 μg/mL
  Inhibitory activity Topoisomerase I: x
Topoisomerase I; final concentration 500 μg/mL
  Inhibitory activity Topoisomerase I: ∘
